Experimental findings from PMC11943016, “TBG096 Ameliorates Memory Deficiency in AD Mouse Model via Promoting Neurogenesis and Regulation of Hsc70/HK2/PKM2/LAMP2A Signaling Pathway” (International Journal of Molecular Sciences, 2025) are described below.

The structures appear in SMILES notation.

Data set [1] concerns AMPK, p-AMPK, Hsc70, PKM2, HK2, LAMP2A, APP, Tau, p-Tau, Aβ oligomers. Put plainly: Western blot of cerebral cortex of HFD-induced AD mice. Type of data set: in vivo. The text has this:
In experiments with the HFD-induced AD mouse model, a total of 60 Institute of Cancer Research (ICR) male mice aged 4 weeks from Zhejiang Academy of Medical Sciences (Hangzhou, China) were used for animal experiments (permit number: ZJU20230121). The animals were provided free access to a chow diet and water. […] The HFD and normal diet were alternated every two days to maintain freshness. Weekly measurements were taken for water intake, food intake, and body weight. In the eighteenth week, the mice underwent Y-maze and NOR tests. The Morris water maze test was conducted during the nineteenth week. After confirming the successful establishment of the AD model characterized by cognitive impairment, oral administration of treatments commenced. […] Each group had 10 mice.
Approximately 50 mg of cerebral cortex from brain tissues was homogenized in RIPA lysis buffer containing 1% protease inhibitor and 1% phosphatase inhibitor. Then, the sample was centrifuged at 12,000 rpm at 4 °C for 10 min, and the supernatant was transferred to a new tube. Protein concentrations were determined using the BCA kit, and 30 µg of protein from each sample was denatured by heating in water at 100 °C for 10 min. […] Finally, the strip was developed using chemiluminescence ECL reagent, and the blot density was quantified with ImageJ (National Institutes of Health, Bethesda, MD, USA).
On the technique in general: A western blot detects proteins with antibodies after separation by electrophoresis.

Data set [2] has as its system Hsc70, LAMP2A, APP, PKM2, and HK2 proteins. Put plainly: Western blot of CMA proteins in PC12 cells (inhibitor experiment). The class given is cell-based. The conditions noted are these: TBG096 1 µM, 4 h, vs control. The procedure:
In the inhibitor experiment of NGF-mimic activity, approximately 5 × 10^4 PC12 cells were seeded into each well of a 24-well plate and incubated for 24 h. After that, the medium in each well was replaced with 500 μL of serum-free DMEM or the serum-free DMEM containing VER155008, the inhibitor of Hsc70 protein, incubated in a CO2 incubator for 30 min. Subsequently, 500 μL of serum-free DMEM containing different samples was added and cultured, respectively. The PC12 cells with neurite outgrowth were recorded after 48 h. For the Western blot analysis, the experiment included five groups, namely the control (C) group, the NGF (40 ng/mL) group, the TBG096 (1 µM) group, the VER155008 (3 µM) group, and the VER155008 (3 µM) + TBG096 (1 µM) group. Afterwards, approximately 2 × 10^6 cells per dish were seeded into ten 6 cm Petri dishes with 5 mL of DMEM medium and incubated for 24 h. After giving different treatments with samples, the cells continued to culture for 4 h. Protein extraction was conducted to prepare for the subsequent Western blot analysis.
Approximately 50 mg of cerebral cortex from brain tissues was homogenized in RIPA lysis buffer containing 1% protease inhibitor and 1% phosphatase inhibitor. Then, the sample was centrifuged at 12,000 rpm at 4 °C for 10 min, and the supernatant was transferred to a new tube. Protein concentrations were determined using the BCA kit, and 30 µg of protein from each sample was denatured by heating in water at 100 °C for 10 min. Subsequently, approximately 30 µg of protein from each sample was loaded into each well. After conducting gel electrophoresis at 80 V for 15 min and then at 120 V for 60 min, the proteins were transferred to the polyvinylidene fluoride (PVDF) membrane for 90 min. Then, the PVDF membrane was blocked with 5% skimmed milk at room temperature for 60 min. The membrane was incubated with a diluted primary antibody at 4 °C overnight. After washing the membrane three times with TBST buffer (1× TBS buffer containing 0.05% (v/v) tween 20), it was incubated with the secondary antibody for 1 h at room temperature. Finally, the strip was developed using chemiluminescence ECL reagent, and the blot density was quantified with ImageJ (National Institutes of Health, Bethesda, MD, USA).

Data set [3] can be described thus: Brain concentration after oral administration in rats (BBB passage). The class given is in vivo. The procedure: In the pharmacokinetic analysis, a total of […] female SD rats aged 8 weeks from Zhejiang Academy of Medical Sciences (Hangzhou, China) (permit number: ZJU20240191) were used. A total of 15 rats were randomly divided into the following groups: (i) control group, (ii) TBG096 (14 mg/kg) oral administration group, and (iii) TBG096 (14 mg/kg) intravenous administration group. TBG096 was administered orally (dissolved in soybean oil) or intravenously (dissolved in Milli-Q water containing 2% Tween 80 and 5% ethanol) at 14 mg/kg after 12 h of fasting. Then, the blood from the posterior ocular venous plexus of rats was taken at 5, 15, 30, 60, 90, 120, 180, and 240 min after administration. […]
The collected blood was placed in a centrifuge tube (containing 20 µL heparin sodium solution) and centrifuged at 3000 rpm for 10 min to obtain a supernatant (plasma). […] The residue was dissolved in 100 µL of mobile phase, vortexed for 0.5 min, and centrifuged at 12,000 rpm for 3 min, and the supernatant was then prepared for HPLC analysis (Supersil Phenyl 5 µm (4.6 × 200 mm), elution with MeCN/H2O containing 0.1% formic acid (plasma samples: 57% MeCN/H2O, brain samples: 56% MeCN/H2O) for 30 min, flow rate: 1 mL/min, sample size: 20 µL, detected at 284 nm) and HR ESI-TOF-MS analysis.

Data set [4] deals with ICR mice. Put plainly: Acute toxicity experiment in mice. The class given is in vivo. The procedure: In the acute toxicity experiment of mice, a total of 40 ICR male mice aged 8 weeks from Zhejiang Academy of Medical Sciences (Hangzhou, China) were used. A standard experimental scheme was adopted according to the requirements of Zhejiang University Animal Experiment Ethics Committee (animal use license number: SYXK(Zhe)2019-0002, permit number: ZJU20230219). The mice were randomly divided into the following groups: (i) control group, (ii) TBG096 100 mg/kg group, (iii) TBG096 300 mg/kg group, and (iv) TBG096 600 mg/kg group. Each group had 10 mice. Soybean oil was used as a vehicle to dissolve TBG096. The body weight, food intake, and water consumption of mice in each group were recorded every day for two weeks. Blood was collected for biochemical index analysis.

On to `O=C(SCCCCCCSCCCC(F)(F)F)c1cccc(O)c1O` [TBG096], for which the “phosphorylated AMPK/AMPK, LAMP2A, Hsc70, HK2 and PKM2 protein levels” value in data set [1] is given as “returned to normal”. Besides, the “APP, Tau, p-Tau, and Aβ oligomers protein expression” value in data set [1] (vs HFD) is “significantly reduced”. The HK2 protein expression result in data set [2] is “significantly decreased”. In addition, in data set [2] (VER155008 3 µM), the APP protein expression entry is “significantly decreased”, the Hsc70 protein level result is given as “significantly increased”, the LAMP2A protein level result was “significantly increased” and the PKM2 protein expression entry is “significantly decreased”. Further, the “ability to cross the BBB” value in data set [3] (brain samples 15 min after oral 14 mg/kg, HPLC and HR ESI-TOF-MS) is “has the ability to cross the BBB”. The same molecule came in with a concentration at 15 min in data set [3] (female, Sprague-Dawley, rat, brain, 15 min after single oral dose 14 mg/kg, rats) of 81.7 ± 6.81 ng/g. Moreover, the “acute toxicity in mice” value in data set [4] (mouse, in vivo) is “does not exhibit acute toxicity”. Moreover, the “body weight, food intake, water consumption” value in data set [4] (oral 100, 300, and 600 mg/kg, two weeks, mice) is reported as “no significant differences”. In addition, in data set [4] (oral 100, 300, and 600 mg/kg, vs control group, mice), the “serum biochemical indices (AST, ALT, AST/ALT, ALB, DBIL)” value is recorded as “no significant changes”.
